{"source": "patent US11793981B2", "about": "“Microneedle device for control of thyroid hormone levels” (priority 2020, dated 2023)", "origin": "cited, not measured here", "key": {"[1]": {"settings": "hypothyroid patients receiving LT4"}, "[2]": {"settings": "pregnancy"}, "hypothyroidism": {"system": "hypothyroidism", "settings": "LT4-treated patients, despite supposedly adequate LT4 treatment"}}, "note": "Read-outs that look alike come from different tables or passages of the source.", "data": [{"smiles": "N[C@@H](Cc1cc(I)c(Oc2ccc(O)c(I)c2)c(I)c1)C(=O)O", "note": "[LT3, liothyronine]", "values": [{"measurement": "half-life", "setting": "oral LT3", "result": "hours to two days"}]}, {"smiles": "N[C@@H](Cc1cc(I)c(Oc2cc(I)c(O)c(I)c2)c(I)c1)C(=O)O", "note": "[LT4, levothyroxine]", "values": [{"measurement": "half-life", "setting": "oral LT4", "result": "about seven"}, {"measurement": "lower serum levels of T3", "setting": "[1]", "result": "about 10%"}, {"measurement": "crossing of the placenta", "setting": "[2]", "result": "crosses the placenta"}, {"measurement": "patients with residual symptoms of hypothyroidism and lower well-being", "setting": "hypothyroidism", "result": "10-20%"}]}]}
